Target: Recombinant human ULK1 (1-649) (Homo sapiens (Human), UniProt O75385)
Test: ULK1 ADP Glo kinase activity assay, new method (ULKtide peptide substrate)
Conditions: 25° C., 40 minutes, read-out: ULK1 biochemical IC50
Outline: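 GST-tagged human ULK1 (1-649) from Sf9 cells was reacted with ULKtide peptide and ATP for 40 min at 25 °C across 12-point compound dilutions from 10 μM. ADP formed was quantified by ADP-Glo luminescence; IC50 came from four-parameter fits relative to DMSO controls.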

Recombinant human ULK1 (1-649), sequence (O75385 1-649): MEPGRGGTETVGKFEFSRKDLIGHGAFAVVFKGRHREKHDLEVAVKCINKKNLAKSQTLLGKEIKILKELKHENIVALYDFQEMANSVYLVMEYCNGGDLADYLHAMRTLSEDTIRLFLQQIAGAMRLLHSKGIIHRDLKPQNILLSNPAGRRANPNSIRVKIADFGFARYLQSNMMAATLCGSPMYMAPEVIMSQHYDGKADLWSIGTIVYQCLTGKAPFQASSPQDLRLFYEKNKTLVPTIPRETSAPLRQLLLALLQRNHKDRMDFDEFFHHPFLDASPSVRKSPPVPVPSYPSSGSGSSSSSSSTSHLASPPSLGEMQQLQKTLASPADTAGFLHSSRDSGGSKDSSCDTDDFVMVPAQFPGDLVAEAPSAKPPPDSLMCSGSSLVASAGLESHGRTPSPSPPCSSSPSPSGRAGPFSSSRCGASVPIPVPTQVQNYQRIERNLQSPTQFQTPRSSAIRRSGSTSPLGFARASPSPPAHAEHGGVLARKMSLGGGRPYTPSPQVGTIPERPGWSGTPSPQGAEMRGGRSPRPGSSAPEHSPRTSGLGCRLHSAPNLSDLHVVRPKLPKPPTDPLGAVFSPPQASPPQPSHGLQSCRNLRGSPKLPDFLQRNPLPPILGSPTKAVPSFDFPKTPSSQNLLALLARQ

Q: How did the IC50 turn out when `CCc1cc2c(cc1Nc1ncc(C(F)(F)F)c(-c3cc4c(s3)C(=O)N(C3CC3)CCS4(=O)=O)n1)CCNC2` [Example 207, 4-cyclopropyl-7-(2-((7-ethyl-1,2,3,4-tetrahydroisoquinolin-6-yl)amino)-5-(trifluoromethyl)pyrimidin-4-yl)-3,4-dihydrothieno[2,3-f][1,4]thiazepin-5(2H)-one 1,1-dioxide] was run?
A: The IC50 was no more than 5 nM.

Q: For `CCc1cc2c(cc1Nc1ncc(C(F)(F)F)c(-c3cc4c(s3)C(=O)N(C3CCC3)CCS4(=O)=O)n1)CCNC2` [Example 208, 4-cyclobutyl-7-(2-((7-ethyl-1,2,3,4-tetrahydroisoquinolin-6-yl)amino)-5-(trifluoromethyl)pyrimidin-4-yl)-3,4-dihydrothieno[2,3-f][1,4]thiazepin-5(2H)-one 1,1-dioxide], which IC50 is on record?
A: Its IC50 is no more than 5 nM.

Q: `O=C1c2sc(-c3nc(Nc4cc5c(cc4C4CC4)CNCC5)ncc3C(F)(F)F)cc2S(=O)(=O)CCN1C1CC1` [Example 209, 4-cyclopropyl-7-(2-((7-cyclopropyl-1,2,3,4-tetrahydroisoquinolin-6-yl)amino)-5-(trifluoromethyl)pyrimidin-4-yl)-3,4-dihydrothieno[2,3-f][1,4]thiazepin-5(2H)-one 1,1-dioxide] was tested. Which IC50 did it give?
A: The IC50 was no more than 5 nM.

Q: With `O=C1c2sc(-c3nc(Nc4cc5c(cc4Cl)CNCC5)ncc3C(F)(F)F)cc2S(=O)(=O)CCN1C1COC1` [Example 210, 7-(2-((7-chloro-1,2,3,4-tetrahydroisoquinolin-6-yl)amino)-5-(trifluoromethyl)pyrimidin-4-yl)-4-(oxetan-3-yl)-3,4-dihydrothieno[2,3-f][1,4]thiazepin-5(2H)-one 1,1-dioxide] as the compound, how does the IC50 read?
A: The IC50 was no more than 5 nM.

Q: For `CCN1CCc2cc(Cl)c(Nc3ncc(C(F)(F)F)c(-c4cc5c(s4)C(=O)N(C)CCS5(=O)=O)n3)cc2C1` [Example 211, 7-(2-((6-chloro-2-ethyl-1,2,3,4-tetrahydroisoquinolin-7-yl)amino)-5-(trifluoromethyl)pyrimidin-4-yl)-4-methyl-3,4-dihydrothieno[2,3-f][1,4]thiazepin-5(2H)-one 1,1-dioxide], which IC50 is on record?
A: Its IC50 is 10 to 50 nM.

Q: With `CCc1cc2c(cc1Nc1ncc(C(F)(F)F)c(-c3cc4c(s3)C(=O)N(C)CCS4(=O)=O)n1)CNCC2` [Example 212, 7-(2-((6-ethyl-1,2,3,4-tetrahydroisoquinolin-7-yl)amino)-5-(trifluoromethyl)pyrimidin-4-yl)-4-methyl-3,4-dihydrothieno[2,3-f][1,4]thiazepin-5(2H)-one 1,1-dioxide] as the compound, how does the IC50 read?
A: The IC50 was no more than 5 nM.

Q: `CCN1CCc2cc(Nc3ncc(C(F)(F)F)c(-c4cc5c(s4)C(=O)N(C4CC4)CCS5(=O)=O)n3)c(Cl)cc2C1` [Example 213, 7-(2-((7-chloro-2-ethyl-1,2,3,4-tetrahydroisoquinolin-6-yl)amino)-5-(trifluoromethyl)pyrimidin-4-yl)-4-cyclopropyl-3,4-dihydrothieno[2,3-f][1,4]thiazepin-5(2H)-one 1,1-dioxide] was tested. Which IC50 did it give?
A: Its IC50 is no more than 5 nM.

Q: `O=C1c2sc(-c3nc(Nc4cc5c(cc4Cl)CCNC5)ncc3C(F)(F)F)cc2S(=O)(=O)CCN1CC(F)(F)F` [Example 214, 7-(2-((6-chloro-1,2,3,4-tetrahydroisoquinolin-7-yl)amino)-5-(trifluoromethyl)pyrimidin-4-yl)-4-(2,2,2-trifluoroethyl)-3,4-dihydrothieno[2,3-f][1,4]thiazepin-5(2H)-one 1,1-dioxide] was tested. Which IC50 did it give?
A: Its IC50 is no more than 5 nM.

Q: `O=C1c2sc(-c3nc(Nc4cc5c(cc4C4CC4)CNCC5)ncc3C(F)(F)F)cc2S(=O)(=O)CCN1CC(F)(F)F` [Example 215, 7-(2-((7-cyclopropyl-1,2,3,4-tetrahydroisoquinolin-6-yl)amino)-5-(trifluoromethyl)pyrimidin-4-yl)-4-(2,2,2-trifluoroethyl)-3,4-dihydrothieno[2,3-f][1,4]thiazepin-5(2H)-one 1,1-dioxide] was tested. Which IC50 did it give?
A: The IC50 was no more than 5 nM.

Q: `Cc1cc2c(cc1Nc1ncc(C(F)(F)F)c(-c3cc4c(s3)C(=O)N(C)CCS4(=O)=O)n1)CCN(CC1COC1)C2` [Example 216, 4-methyl-7-(2-((7-methyl-2-(oxetan-3-ylmethyl)-1,2,3,4-tetrahydroisoquinolin-6-yl)amino)-5-(trifluoromethyl)pyrimidin-4-yl)-3,4-dihydrothieno[2,3-f][1,4]thiazepin-5(2H)-one 1,1-dioxide] was tested. Which IC50 did it give?
A: Its IC50 is no more than 5 nM.

Q: `CN1CCS(=O)(=O)c2cc(-c3nc(Nc4ccc(N5CCN(CC6COC6)CC5)cc4Cl)ncc3C(F)(F)F)sc2C1=O` [Example 217, 7-(2-((2-chloro-4-(4-(oxetan-3-ylmethyl)piperazin-1-yl)phenyl)amino)-5-(trifluoromethyl)pyrimidin-4-yl)-4-methyl-3,4-dihydrothieno[2,3-f][1,4]thiazepin-5(2H)-one 1,1-dioxide] was tested. Which IC50 did it give?
A: Its IC50 is no more than 5 nM.

Q: For `O=C1c2sc(-c3nc(Nc4cc5c(cc4C4CC4)CNCC5)ncc3C(F)(F)F)cc2S(=O)(=O)CCN1C1CCC1` [Example 218, 4-cyclobutyl-7-(2-((7-cyclopropyl-1,2,3,4-tetrahydroisoquinolin-6-yl)amino)-5-(trifluoromethyl)pyrimidin-4-yl)-3,4-dihydrothieno[2,3-f][1,4]thiazepin-5(2H)-one 1,1-dioxide], which IC50 is on record?
A: The IC50 was no more than 5 nM.

Q: `O=C1c2sc(-c3nc(Nc4cc5c(cc4C4CC4)CNCC5)ncc3C(F)(F)F)cc2S(=O)(=O)CCN1C1COC1` [Example 219, 7-(2-((7-cyclopropyl-1,2,3,4-tetrahydroisoquinolin-6-yl)amino)-5-(trifluoromethyl)pyrimidin-4-yl)-4-(oxetan-3-yl)-3,4-dihydrothieno[2,3-f][1,4]thiazepin-5(2H)-one 1,1-dioxide] was tested. Which IC50 did it give?
A: The IC50 was no more than 5 nM.

Q: For `CCc1cc2c(cc1Nc1ncc(C(F)(F)F)c(-c3cc4c(s3)C(=O)N(C3CC3)CCS4(=O)=O)n1)CNCC2` [Example 220, 4-cyclopropyl-7-(2-((6-ethyl-1,2,3,4-tetrahydroisoquinolin-7-yl)amino)-5-(trifluoromethyl)pyrimidin-4-yl)-3,4-dihydrothieno[2,3-f][1,4]thiazepin-5(2H)-one 1,1-dioxide], which IC50 is on record?
A: The IC50 was no more than 5 nM.

Q: Which IC50 does the source give for `CCc1cc2c(cc1Nc1ncc(C(F)(F)F)c(-c3cc4c(s3)C(=O)N(C3CCC3)CCS4(=O)=O)n1)CNCC2` [Example 221, 4-cyclobutyl-7-(2-((6-ethyl-1,2,3,4-tetrahydroisoquinolin-7-yl)amino)-5-(trifluoromethyl)pyrimidin-4-yl)-3,4-dihydrothieno[2,3-f][1,4]thiazepin-5(2H)-one 1,1-dioxide] here?
A: The IC50 was no more than 5 nM.

Q: `CCc1cc2c(cc1Nc1ncc(C(F)(F)F)c(-c3cc4c(s3)C(=O)N(C)CCS4(=O)=O)n1)CCN(CC)C2` [Example 222, 7-(2-((2,7-diethyl-1,2,3,4-tetrahydroisoquinolin-6-yl)amino)-5-(trifluoromethyl)pyrimidin-4-yl)-4-methyl-3,4-dihydrothieno[2,3-f][1,4]thiazepin-5(2H)-one 1,1-dioxide] was tested. Which IC50 did it give?
A: The IC50 was no more than 5 nM.

Q: For `CCc1cc2c(cc1Nc1ncc(C(F)(F)F)c(-c3cc4c(s3)C(=O)N(C)CCS4(=O)=O)n1)CCN(CC1CC1)C2` [Example 223, 7-(2-((2-(cyclopropylmethyl)-7-ethyl-1,2,3,4-tetrahydroisoquinolin-6-yl)amino)-5-(trifluoromethyl)pyrimidin-4-yl)-4-methyl-3,4-dihydrothieno[2,3-f][1,4]thiazepin-5(2H)-one 1,1-dioxide], which IC50 is on record?
A: The IC50 was no more than 5 nM.

Q: With `O=C1c2sc(-c3nc(Nc4cc5c(cc4C4CC4)CCNC5)ncc3C(F)(F)F)cc2S(=O)(=O)CCN1C1CC1` [Example 224, 4-cyclopropyl-7-(2-((6-cyclopropyl-1,2,3,4-tetrahydroisoquinolin-7-yl)amino)-5-(trifluoromethyl)pyrimidin-4-yl)-3,4-dihydrothieno[2,3-f][1,4]thiazepin-5(2H)-one 1,1-dioxide] as the compound, how does the IC50 read?
A: Its IC50 is no more than 5 nM.

Q: Which IC50 does the source give for `O=C1c2sc(-c3nc(Nc4cc5c(cc4C4CC4)CCNC5)ncc3C(F)(F)F)cc2S(=O)(=O)CCN1C1CCC1` [Example 225, 4-cyclobutyl-7-(2-((6-cyclopropyl-1,2,3,4-tetrahydroisoquinolin-7-yl)amino)-5-(trifluoromethyl)pyrimidin-4-yl)-3,4-dihydrothieno[2,3-f][1,4]thiazepin-5(2H)-one 1,1-dioxide] here?
A: The IC50 was no more than 5 nM.

Q: With `O=C1c2sc(-c3nc(Nc4cc5c(cc4Cl)CN(CCF)CC5)ncc3C(F)(F)F)cc2S(=O)(=O)CCN1C1CC1` [Example 227, 7-(2-((7-chloro-2-(2-fluoroethyl)-1,2,3,4-tetrahydroisoquinolin-6-yl)amino)-5-(trifluoromethyl)pyrimidin-4-yl)-4-cyclopropyl-3,4-dihydrothieno[2,3-f][1,4]thiazepin-5(2H)-one 1,1-dioxide] as the compound, how does the IC50 read?
A: Its IC50 is no more than 5 nM.

Q: Which IC50 does the source give for `CCc1cc2c(cc1Nc1ncc(C(F)(F)F)c(-c3cc4c(s3)C(=O)N(C3CC3)CCS4(=O)=O)n1)CCN(CC)C2` [Example 228, 4-cyclopropyl-7-(2-((2,7-diethyl-1,2,3,4-tetrahydroisoquinolin-6-yl)amino)-5-(trifluoromethyl)pyrimidin-4-yl)-3,4-dihydrothieno[2,3-f][1,4]thiazepin-5(2H)-one 1,1-dioxide] here?
A: The IC50 was no more than 5 nM.

Q: Which IC50 does the source give for `O=C1c2sc(-c3nc(Nc4cc5c(cc4Cl)CCNC5)ncc3C(F)(F)F)cc2S(=O)(=O)CCN1C1COC1` [Example 230, 7-(2-((6-chloro-1,2,3,4-tetrahydroisoquinolin-7-yl)amino)-5-(trifluoromethyl)pyrimidin-4-yl)-4-(oxetan-3-yl)-3,4-dihydrothieno[2,3-f][1,4]thiazepin-5(2H)-one 1,1-dioxide] here?
A: Its IC50 is no more than 5 nM.

Q: How did the IC50 turn out when `CN1CCS(=O)(=O)c2cc(-c3nc(Nc4cc5c(cc4C4CC4)CCNC5)ncc3C(F)(F)F)sc2C1=O` [Example 231, 7-(2-((6-cyclopropyl-1,2,3,4-tetrahydroisoquinolin-7-yl)amino)-5-(trifluoromethyl)pyrimidin-4-yl)-4-methyl-3,4-dihydrothieno[2,3-f][1,4]thiazepin-5(2H)-one 1,1-dioxide] was run?
A: The IC50 was no more than 5 nM.

Q: How did the IC50 turn out when `O=C1c2sc(-c3nc(Nc4cc5c(cc4C4CC4)CCNC5)ncc3C(F)(F)F)cc2S(=O)(=O)CCN1CC(F)(F)F` [Example 232, 7-(2-((6-cyclopropyl-1,2,3,4-tetrahydroisoquinolin-7-yl)amino)-5-(trifluoromethyl)pyrimidin-4-yl)-4-(2,2,2-trifluoroethyl)-3,4-dihydrothieno[2,3-f][1,4]thiazepin-5(2H)-one 1,1-dioxide] was run?
A: The IC50 was no more than 5 nM.

From patent US20250144094A1 (Erasca, Inc., priority 2021, published 2025)
